From patent US20090192154A1, “SULTAM DERIVATIVES” (Asahi Kasei Pharma Corporation, priority 2007, published 2009)
Read-outs that look alike come from different tables or passages of the source.

Tests used:
Assay type in all cases: biochemical
[1] = target: T1, human recombinant ADAMTS-5 (Homo sapiens, UniProt Q9UNA0); experiment: Inhibitory action for ADAMTS-5 (aggrecanase) activity, FRET assay with aggrecan interglobular domain peptide; details: human recombinant ADAMTS-5, 37° C. for 60 minutes
T1 construct: human recombinant ADAMTS-5 in which 6×His tag was added to the C-end side of Asn624; 6xHis (C); made in house
T1 sequence (Q9UNA0 262-624 limits assumed): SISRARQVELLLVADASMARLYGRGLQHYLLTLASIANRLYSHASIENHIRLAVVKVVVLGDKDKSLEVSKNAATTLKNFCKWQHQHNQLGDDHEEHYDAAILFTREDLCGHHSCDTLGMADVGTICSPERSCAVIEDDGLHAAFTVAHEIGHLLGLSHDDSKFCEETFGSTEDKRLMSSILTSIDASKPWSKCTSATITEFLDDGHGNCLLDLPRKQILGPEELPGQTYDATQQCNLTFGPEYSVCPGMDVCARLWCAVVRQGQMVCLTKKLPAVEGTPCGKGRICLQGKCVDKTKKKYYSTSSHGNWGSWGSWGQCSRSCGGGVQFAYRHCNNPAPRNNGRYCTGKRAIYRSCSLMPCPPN
Protocol: The enzyme protein used for measurement of ADAMTS-5 activity was human recombinant ADAMTS-5. An insect cell line was prepared that stably expressed human recombinant ADAMTS-5 in which 6×His tag was added to the C-end side of Asn624. The culture supernatant of this cell line was collected, and the obtained culture supernatant was purified using Ni-NTA agarose (Qiagen)
A matrix peptide used for measurement of aggrecanase activity was Interglobular domain of human recombinant aggrecan. With reference to the method of Hughes, et al. (J. Biol. Chem. 272: pp. 20269-20274, 1997), the peptide of Thr331 to Gly457 of human aggrecan was contained, and the FLAG epitope peptide was added at the N-terminal, and the C-terminal was modified with biotin. This peptide was expressed using Escherichia coli, and the obtained Escherichia coli was subjected to lysis, and then the peptide was purified with an affinity column (Promega)
Desired concentration of the test compound was reacted in 40 μl of a mixed reaction solution containing 50 mmol/L Tris-HCl (pH 7.5), 100 mmol/L NaCl, 10 mmol/L CaCl2, 0.05% Brij35 and human recombinant ADAMTS-5 and Interglobular domain peptide of human recombinant aggrecan at 37° C. for 60 minutes. To the mixed reaction solution was added 10 μl of 0.2 mol/L EDTA to stop the enzyme reaction. Five μl of this mixed reaction solution was harvested and transferred to a 384 well plate. 0.2% Bovine albumin, cryptate-labeled Streptavidin (CIS bio) and XL 665-labeled anti-FLAG (M2) antibody (CIS bio) suitably diluted with PBS (−)-containing 800 mmol/L potassium fluoride were added thereto so that the amount of each of the added matters was 2.5 μl. The resultant solution was incubated at room temperature. After 60 minutes, the fluorescence value was measured at 340 nm excitation wavelength and 615 nm and 665 nm measurement wavelengths with a fluorescence plate reader. When the matrix peptide was not cleaved, the fluorescence resonance energy transfer from cryptate to XL665 occurs and long life fluorescence of 665 nm wavelength is generated. […] Therefore, the aggrecanase activity was calculated using the change of the ratio of the fluorescence value at 665 nm and the fluorescence value at 615 nm. […] The inhibitory action for aggrecanase activity was represented by IC50 value (μmol/L). Exp. No. in Table 2 represents Example number.

[2] = target: T2, activated human recombinant MMP-3 (Homo sapiens, UniProt P08254); experiment: Inhibitory action for MMP-3 activity, fluorescence peptide assay; details: activated human recombinant MMP-3, 30° C. for 45 minutes
T2 construct: purchased R&D
Protocol: (§1) Desired concentration of the test compound was reacted in 100 μl of a mixed reaction solution containing 50 mmol/L Tris-HCl (pH7.5), 150 mmol/LNaCl, 10 mmol/LCaCl2, 0.05% Brij35 and activated human recombinant MMP-3 (R&D) and fluorescence peptide matrix Mca-ArgProLysProValGlu-Nval-TrpArgLys (Dnp) —NH2 (R&D) at 30° C. for 45 minutes. To the mixed reaction solution was added 10 μl of 0.2 mol/L EDTA to stop the enzyme reaction. Then, the fluorescence value was measured at 320 nm excitation wavelength and 405 nm measurement wavelength with a fluorescence plate reader.

[3] = target: T3, activated human recombinant MMP-2 (Homo sapiens, UniProt P08253); experiment: Inhibitory action for MMP-2 activity, fluorescence peptide assay; details: activated human recombinant MMP-2, 30° C. for 45 minutes
T3 construct: purchased R&D
T3 sequence (P08253 110-660): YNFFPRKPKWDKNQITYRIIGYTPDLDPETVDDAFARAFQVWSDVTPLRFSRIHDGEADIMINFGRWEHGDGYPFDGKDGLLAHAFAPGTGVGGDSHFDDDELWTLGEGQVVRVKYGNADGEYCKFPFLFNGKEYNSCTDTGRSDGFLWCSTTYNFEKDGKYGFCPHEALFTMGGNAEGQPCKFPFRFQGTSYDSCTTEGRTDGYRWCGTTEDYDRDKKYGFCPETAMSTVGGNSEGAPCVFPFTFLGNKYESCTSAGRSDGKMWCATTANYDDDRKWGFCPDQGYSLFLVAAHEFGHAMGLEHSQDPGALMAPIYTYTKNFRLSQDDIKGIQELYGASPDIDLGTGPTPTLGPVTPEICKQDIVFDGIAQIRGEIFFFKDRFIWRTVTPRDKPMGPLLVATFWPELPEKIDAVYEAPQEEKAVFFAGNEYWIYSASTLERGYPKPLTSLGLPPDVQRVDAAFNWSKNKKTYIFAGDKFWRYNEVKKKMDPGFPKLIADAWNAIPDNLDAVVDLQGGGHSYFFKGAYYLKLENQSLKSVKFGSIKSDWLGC
Protocol: as §1, with “mmol/L NaCl,” for “mmol/LNaCl,”, “MMP-2” for “MMP-3”, “Mca-ProLeuGlyLeuDpaAlaArg-NH2” for “Mca-ArgProLysProValGlu-Nval-TrpArgLys (Dnp) —NH2”, “solution,” for “solution was added”, “EDTA was added” for “EDTA”

[4] = target: T4, activated human recombinant MMP-14 catalytic domain (Homo sapiens, UniProt P50281); experiment: Inhibitory action for MMP-14 activity, fluorescence peptide assay; details: 30° C. for 45 minutes
T4 construct: purchased Calbiochem
Protocol: as §1, with “MMP-14 catalytic domain (Calbiochem)” for “MMP-3 (R&D)”, “matrix” for “matrix Mca-ArgProLysProValGlu-Nval-TrpArgLys (Dnp) —NH2”

[5] = read-out: ADAMTS-5 inhibitory activity IC50 value

T2 sequence (P08254 100-477): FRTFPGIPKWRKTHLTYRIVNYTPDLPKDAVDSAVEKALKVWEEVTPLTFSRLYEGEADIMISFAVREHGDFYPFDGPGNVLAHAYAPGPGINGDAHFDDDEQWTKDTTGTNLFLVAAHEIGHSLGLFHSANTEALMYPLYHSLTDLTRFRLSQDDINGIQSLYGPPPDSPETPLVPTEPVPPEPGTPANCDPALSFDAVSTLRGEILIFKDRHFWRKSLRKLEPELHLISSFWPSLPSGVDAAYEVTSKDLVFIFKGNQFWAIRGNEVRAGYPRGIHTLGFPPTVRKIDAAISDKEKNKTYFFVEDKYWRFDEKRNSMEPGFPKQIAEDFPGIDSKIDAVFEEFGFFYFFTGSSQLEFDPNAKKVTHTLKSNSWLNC

Row | IC50 [1, 5] [nM] | SMILES | further results
1 | ≤ 2000 | CCC(C(=O)NO)N1Cc2sc(-c3ccccc3)cc2S1(=O)=O (centres unmarked) [Example 18] | 
2 | ≤ 2000 | CCC(C(=O)O)N1Cc2sc(-c3ccc(/C=C/c4ccc(-c5ccccc5)cc4)cc3)cc2S1(=O)=O (centres unmarked) [Example 96] | IC50 [2]: ≥ 30 µM; IC50 [3]: ≥ 30 µM; IC50 [4]: ≥ 30 µM
3 | ≤ 2000 | CCC(C(=O)O)N1Cc2sc(C#Cc3ccc(N(C)C)cc3)cc2S1(=O)=O (centres unmarked) [Example 66] | 
4 | ≤ 2000 | CCC(C(=O)O)N1Cc2sc(-c3ccc(NC(=O)c4ccc(OCc5ccccc5)cc4)cc3)cc2S1(=O)=O (centres unmarked) [Example 147] | IC50 [2]: ≥ 30 µM; IC50 [3]: ≥ 30 µM; IC50 [4]: ≥ 30 µM
5 | ≤ 2000 | CCC(C(=O)O)N1Cc2sc(-c3ccc(/C=C/c4ccc(OC)cc4)cc3)cc2S1(=O)=O (centres unmarked) [Example 60] | 
6 | ≤ 2000 | CCC(C(=O)O)N1Cc2sc(-c3ccc(C#Cc4ccccc4)cc3)cc2S1(=O)=O (centres unmarked) [Example 61] | 
7 | ≤ 2000 | CCC(C(=O)O)N1Cc2sc(C#Cc3ccc(-c4ccccc4)cc3)cc2S1(=O)=O (centres unmarked) [Example 69] | 
8 | ≤ 2000 | CCC(C(=O)O)N1Cc2sc(/C=C/c3ccc(-c4ccccc4)cc3)cc2S1(=O)=O (single isomer, unassigned) [Example 41] | 
9 | ≤ 2000 | CCC(C(=O)O)N1Cc2sc(-c3ccc(-c4ccc5c(ccn5C)c4)cc3)cc2S1(=O)=O (centres unmarked) [Example 53] | 

Further lines, the compound ahead of its results:

Row | SMILES | IC50 [1, 5] [nM] | further results
10 | CCC(C(=O)NO)N1Cc2sc(/C=C/c3ccc(-c4ccccc4)cc3)cc2S1(=O)=O (centres unmarked) [Example 26] | ≤ 2000 | 
11 | CCC(C(=O)O)N1Cc2sc(-c3ccc(-c4cc5ccccc5[nH]4)cc3)cc2S1(=O)=O (centres unmarked) [Example 54] | ≤ 2000 | 
12 | CC(C(=O)NO)N1Cc2sc(-c3ccccc3)cc2S1(=O)=O (centres unmarked) [Example 11] |  | IC50 ([1]; read-out: ADAMTS-5 IC50): 4000 nM
13 | CCC(C(=O)O)N1Cc2sc(/C=C/c3ccc(-c4ccccc4)cc3)cc2S1(=O)=O (centres unmarked) [Example 22] | ≤ 2000 | 
14 | CCC(C(=O)O)N1Cc2sc(-c3ccc(/C=C/c4ccc(Cl)cc4)cc3)cc2S1(=O)=O (centres unmarked) [Example 94] | ≤ 2000 | 
15 | CCC(C(=O)O)N1Cc2sc(-c3ccc(/C=C/c4ccsc4)cc3)cc2S1(=O)=O (centres unmarked) [Example 97] | ≤ 2000 | 
16 | CCC(C(=O)O)N1Cc2cc(-c3ccc(COc4ccc(Oc5ccccc5)cc4)cc3)sc2S1(=O)=O (centres unmarked) [Example 104] | ≤ 2000 | IC50 [2]: ≥ 30 µM; IC50 [3]: ≥ 30 µM; IC50 [4]: ≥ 30 µM
17 | CC(C)C(C(=O)NO)N1Cc2sc(-c3ccccc3)cc2S1(=O)=O (centres unmarked) [Example 5] |  | IC50 ([1]; read-out: ADAMTS-5 IC50): 2100 nM
18 | CCC(C(=O)O)N1Cc2sc(-c3ccc(-c4cncnc4)cc3)cc2S1(=O)=O (centres unmarked) [Example 56] | ≤ 2000 | 
19 | CCC(C(=O)O)N1Cc2sc(-c3ccc(/C=C/c4ccccc4)cc3)cc2S1(=O)=O (centres unmarked) [Example 30] | ≤ 2000 | 
20 | CCC(C(=O)NO)N1Cc2sc(-c3ccccc3)cc2S1(=O)=O (centres unmarked) [Example 12] |  | IC50 ([1]; read-out: ADAMTS-5 IC50): 2000 nM
21 | CCC(C(=O)O)N1Cc2sc(-c3ccc(/C=C/c4ccc(C)cc4)cc3)cc2S1(=O)=O (centres unmarked) [Example 95] | ≤ 2000 | 
22 | O=C(NO)C(C1CCCCC1)N1Cc2sc(-c3ccccc3)cc2S1(=O)=O (centres unmarked) [Example 13] |  | IC50 ([1]; read-out: ADAMTS-5 IC50): 2000 nM
23 | O=C(NO)C(c1ccccc1)N1Cc2sc(-c3ccccc3)cc2S1(=O)=O (centres unmarked) [Example 14] |  | IC50 ([1]; read-out: ADAMTS-5 IC50): 7000 nM
24 | CCC(C(=O)O)N1Cc2sc(-c3ccc(OCc4ccccc4)c(F)c3)cc2S1(=O)=O (centres unmarked) [Example 113] |  | IC50 [2]: ≥ 30 µM; IC50 [3]: ≥ 30 µM; IC50 [4]: ≥ 30 µM
25 | CCC(C(=O)O)N1Cc2sc(-c3ccc(-c4ccc5c(cnn5C)c4)cc3)cc2S1(=O)=O (centres unmarked) [Example 102] | ≤ 2000 | IC50 [2]: ≥ 30 µM; IC50 [4]: ≥ 30 µM
